The text below walks through data of patent US20230143604A1, “QW DOSING OF GIP RECEPTOR AGONIST PEPTIDE COMPOUNDS AND USES THEREOF” (TAKEDA PHARMACEUTICAL COMPANY LIMITED, priority 2020, published 2023).

A short description of the series: physchem. In a few lines:
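Solubility at pH 7.4 determined by stepwise addition of 200 mM phosphate buffer in 100 μL increments to 3 mg peptide, mixing briefly each time, until no insoluble material remained, then measured by liquid chromatography.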

Starred links: 1 amine or outer side, 2 acyl side, 3 side chain; linkers in the order of their positions; H or OH if unused. Non-standard residues stand in square brackets, D forms with d. Residues, ends and D or L forms follow the SMILES beside them. Groups on a side chain read outwards from the residue. *: point of attachment. C18 diacid = O=C(O)CCCCCCCCCCCCCCCCC(=O)*; γGlu = O=C(O)[C@H](CCC(=O)[*:2])N[*:1]; NMeY = CN[C@@H](Cc1ccc(O)cc1)C(=O)O; AEEA = NCCOCCOCC(=O)O; Aib = CC(C)(N)C(=O)O

Usually solubility stands for the concentration that dissolves in the medium under given conditions. The low end stands for a poorly soluble substance, the high end for a readily soluble substance. `CC[C@H](C)[C@H](NC(=O)[C@H](Cc1ccccc1)NC(=O)[C@@H](NC(=O)CNC(=O)[C@H](CCC(=O)O)NC(=O)C(C)(C)NC(=O)[C@@H](N)Cc1ccc(O)cc1)[C@@H](C)O)C(=O)N[C@@H](CO)C(=O)N[C@@H](CC(=O)O)C(=O)N[C@@H](Cc1ccc(O)cc1)C(=O)N[C@@H](CO)C(=O)N[C@H](C(=O)NC(C)(C)C(=O)N[C@@H](CC(C)C)C(=O)N[C@@H](CC(=O)O)C(=O)N[C@@H](CCCCN)C(=O)N[C@@H](C)C(=O)N[C@@H](CCCCNC(=O)COCCOCCNC(=O)COCCOCCNC(=O)CC[C@H](NC(=O)CCCCCCCCCCCCCCCCC(=O)O)C(=O)O)C(=O)N[C@@H](CCC(N)=O)C(=O)N[C@@H](C)C(=O)N[C@@H](CC(=O)O)C(=O)N[C@@H](Cc1ccccc1)C(=O)N[C@H](C(=O)N[C@@H](CC(N)=O)C(=O)N[C@@H](Cc1c[nH]c2ccccc12)C(=O)N[C@@H](CC(C)C)C(=O)N[C@@H](CC(C)C)C(=O)N[C@@H](C)C(=O)N[C@@H](CCC(N)=O)C(=O)N[C@@H](CCCNC(=N)N)C(=O)NCC(=O)O)C(C)C)[C@@H](C)CC` [Compound 171] (H-Y[Aib]EGTFISDYSI[Aib]LDKAK([AEEA-AEEA-γGlu-C18 diacid])QADFVNWLLAQRG-OH): the solubility was at least 15 mg/mL (pH 7.4) and at least 30 mg/mL (pH 7.4, aqueous buffer).

Turning to `CC[C@H](C)[C@H](NC(=O)[C@H](CCCCN)NC(=O)[C@H](CC(=O)O)NC(=O)[C@H](CC(C)C)NC(=O)C(C)(C)NC(=O)[C@@H](NC(=O)[C@H](CO)NC(=O)[C@H](Cc1ccc(O)cc1)NC(=O)[C@H](CC(=O)O)NC(=O)[C@H](CO)NC(=O)[C@@H](NC(=O)[C@H](Cc1ccccc1)NC(=O)[C@@H](NC(=O)CNC(=O)[C@H](CCC(=O)O)NC(=O)C(C)(C)NC(=O)[C@@H](N)Cc1ccc(O)cc1)[C@@H](C)O)[C@@H](C)CC)[C@@H](C)CC)C(=O)N[C@@H](CCCCNC(=O)COCCOCCNC(=O)COCCOCCNC(=O)CC[C@H](NC(=O)CCCCCCCCCCCCCCCCC(=O)O)C(=O)O)C(=O)N[C@@H](CCC(N)=O)C(=O)N[C@@H](C)C(=O)N[C@@H](CC(=O)O)C(=O)N[C@@H](Cc1ccccc1)C(=O)N[C@H](C(=O)N[C@@H](CC(N)=O)C(=O)N[C@@H](Cc1c[nH]c2ccccc12)C(=O)N[C@@H](CC(C)C)C(=O)N[C@@H](CC(C)C)C(=O)N[C@@H](C)C(=O)N[C@@H](CCC(N)=O)C(=O)N[C@@H](CCCNC(=N)N)C(=O)NCC(=O)O)C(C)C` [Compound 172] (H-Y[Aib]EGTFISDYSI[Aib]LDKIK([AEEA-AEEA-γGlu-C18 diacid])QADFVNWLLAQRG-OH), the solubility (pH 7.4) is at least 15 mg/mL and the solubility (pH 7.4, aqueous buffer) is at least 30 mg/mL.

As to `CC[C@H](C)[C@H](NC(=O)[C@H](CCCCN)NC(=O)[C@H](CC(=O)O)NC(=O)[C@H](CC(C)C)NC(=O)[C@H](C)NC(=O)[C@@H](NC(=O)[C@H](CO)NC(=O)[C@H](Cc1ccc(O)cc1)NC(=O)[C@H](CC(=O)O)NC(=O)[C@H](CO)NC(=O)[C@@H](NC(=O)[C@H](Cc1ccccc1)NC(=O)[C@@H](NC(=O)CNC(=O)[C@H](CCC(=O)O)NC(=O)C(C)(C)NC(=O)[C@H](Cc1ccc(O)cc1)NC)[C@@H](C)O)[C@@H](C)CC)[C@@H](C)CC)C(=O)N[C@@H](C)C(=O)N[C@@H](CCC(N)=O)C(=O)NC(C)(C)C(=O)N[C@@H](CCCCNC(=O)COCCOCCNC(=O)COCCOCCNC(=O)CC[C@H](NC(=O)CC[C@H](NC(=O)CCCCCCCCCCCCCCCCC(=O)O)C(=O)O)C(=O)O)C(=O)N[C@@H](Cc1ccccc1)C(=O)N[C@H](C(=O)N[C@@H](CCC(=O)O)C(=O)N[C@@H](Cc1c[nH]c2ccccc12)C(=O)N[C@@H](CC(C)C)C(=O)N[C@@H](CC(C)C)C(=O)N[C@@H](C)C(=O)N[C@@H](CCC(N)=O)C(=O)N[C@@H](CCCNC(=N)N)C(=O)NCC(=O)O)C(C)C` [Compound 173] (H-[NMeY][Aib]EGTFISDYSIALDKIAQ[Aib]K([AEEA-AEEA-γGlu-γGlu-C18 diacid])FVEWLLAQRG-OH), the solubility was at least 15 mg/mL (pH 7.4) and at least 30 mg/mL (pH 7.4, aqueous buffer).

`CC[C@H](C)[C@H](NC(=O)[C@H](CO)NC(=O)[C@H](Cc1ccc(O)cc1)NC(=O)[C@H](CC(=O)O)NC(=O)[C@H](CO)NC(=O)[C@@H](NC(=O)[C@H](Cc1ccccc1)NC(=O)[C@@H](NC(=O)CNC(=O)[C@H](CCC(=O)O)NC(=O)C(C)(C)NC(=O)[C@H](Cc1ccc(O)cc1)NC)[C@@H](C)O)[C@@H](C)CC)C(=O)N[C@@H](C)C(=O)N[C@@H](CC(C)C)C(=O)N[C@@H](CC(=O)O)C(=O)N[C@@H](CCCCN)C(=O)N[C@@H](C)C(=O)N[C@@H](C)C(=O)N[C@@H](CCC(N)=O)C(=O)NC(C)(C)C(=O)N[C@@H](CCCCNC(=O)COCCOCCNC(=O)COCCOCCNC(=O)CC[C@H](NC(=O)CC[C@H](NC(=O)CCCCCCCCCCCCCCCCC(=O)O)C(=O)O)C(=O)O)C(=O)N[C@@H](Cc1ccccc1)C(=O)N[C@H](C(=O)N[C@@H](CCC(=O)O)C(=O)N[C@@H](Cc1c[nH]c2ccccc12)C(=O)N[C@@H](CC(C)C)C(=O)N[C@@H](CC(C)C)C(=O)N[C@@H](C)C(=O)N[C@@H](CCC(N)=O)C(=O)N[C@@H](CCCNC(=N)N)C(=O)NCC(=O)O)C(C)C` [Compound 174] (H-[NMeY][Aib]EGTFISDYSIALDKAAQ[Aib]K([AEEA-AEEA-γGlu-γGlu-C18 diacid])FVEWLLAQRG-OH) yielded a solubility (pH 7.4) of at least 15 mg/mL and a solubility (pH 7.4, aqueous buffer) of at least 30 mg/mL.

`CC[C@H](C)[C@H](NC(=O)[C@H](CCCCN)NC(=O)[C@H](CC(=O)O)NC(=O)[C@H](CC(C)C)NC(=O)[C@H](C)NC(=O)[C@@H](NC(=O)[C@H](CO)NC(=O)[C@H](Cc1ccc(O)cc1)NC(=O)[C@H](CC(=O)O)NC(=O)[C@H](CO)NC(=O)[C@@H](NC(=O)[C@H](Cc1ccccc1)NC(=O)[C@@H](NC(=O)CNC(=O)[C@H](CCC(=O)O)NC(=O)C(C)(C)NC(=O)[C@H](Cc1ccc(O)cc1)NC)[C@@H](C)O)[C@@H](C)CC)[C@@H](C)CC)C(=O)N[C@@H](C)C(=O)N[C@@H](CCC(N)=O)C(=O)NC(C)(C)C(=O)N[C@@H](CCCCNC(=O)COCCOCCNC(=O)COCCOCCNC(=O)CC[C@H](NC(=O)CC[C@H](NC(=O)CCCCCCCCCCCCCCCCC(=O)O)C(=O)O)C(=O)O)C(=O)N[C@@H](Cc1ccccc1)C(=O)N[C@H](C(=O)N[C@@H](CC(N)=O)C(=O)N[C@@H](Cc1c[nH]c2ccccc12)C(=O)N[C@@H](CC(C)C)C(=O)N[C@@H](CC(C)C)C(=O)N[C@@H](C)C(=O)N[C@@H](CCC(N)=O)C(=O)N[C@@H](CCCNC(=N)N)C(=O)NCC(=O)O)C(C)C` [Compound 175] (H-[NMeY][Aib]EGTFISDYSIALDKIAQ[Aib]K([AEEA-AEEA-γGlu-γGlu-C18 diacid])FVNWLLAQRG-OH) registered a solubility (pH 7.4) of at least 15 mg/mL and a solubility (pH 7.4, aqueous buffer) of at least 30 mg/mL.

In turn, `CC[C@H](C)[C@H](NC(=O)[C@H](CO)NC(=O)[C@H](Cc1ccc(O)cc1)NC(=O)[C@H](CC(=O)O)NC(=O)[C@H](CO)NC(=O)[C@@H](NC(=O)[C@H](Cc1ccccc1)NC(=O)[C@@H](NC(=O)CNC(=O)[C@H](CCC(=O)O)NC(=O)C(C)(C)NC(=O)[C@H](Cc1ccc(O)cc1)NC)[C@@H](C)O)[C@@H](C)CC)C(=O)N[C@@H](C)C(=O)N[C@@H](CC(C)C)C(=O)N[C@@H](CC(=O)O)C(=O)N[C@@H](CCCCN)C(=O)N[C@@H](C)C(=O)N[C@@H](C)C(=O)N[C@@H](CCC(N)=O)C(=O)NC(C)(C)C(=O)N[C@@H](CCCCNC(=O)COCCOCCNC(=O)COCCOCCNC(=O)CC[C@H](NC(=O)CC[C@H](NC(=O)CCCCCCCCCCCCCCCCC(=O)O)C(=O)O)C(=O)O)C(=O)N[C@@H](Cc1ccccc1)C(=O)N[C@H](C(=O)N[C@@H](CC(N)=O)C(=O)N[C@@H](Cc1c[nH]c2ccccc12)C(=O)N[C@@H](CC(C)C)C(=O)N[C@@H](CC(C)C)C(=O)N[C@@H](C)C(=O)N[C@@H](CCC(N)=O)C(=O)N[C@@H](CCCNC(=N)N)C(=O)NCC(=O)O)C(C)C` [Compound 176] (H-[NMeY][Aib]EGTFISDYSIALDKAAQ[Aib]K([AEEA-AEEA-γGlu-γGlu-C18 diacid])FVNWLLAQRG-OH) yielded a solubility (pH 7.4) of at least 15 mg/mL and a solubility (pH 7.4, aqueous buffer) of at least 30 mg/mL.

Regarding `CC[C@H](C)[C@H](NC(=O)[C@H](CCCNC(=N)N)NC(=O)[C@H](CC(=O)O)NC(=O)[C@H](CC(C)C)NC(=O)[C@H](C)NC(=O)[C@@H](NC(=O)[C@H](CO)NC(=O)[C@H](Cc1ccc(O)cc1)NC(=O)[C@H](CC(=O)O)NC(=O)[C@H](CO)NC(=O)[C@@H](NC(=O)[C@H](Cc1ccccc1)NC(=O)[C@@H](NC(=O)CNC(=O)[C@H](CCC(=O)O)NC(=O)C(C)(C)NC(=O)[C@H](Cc1ccc(O)cc1)NC)[C@@H](C)O)[C@@H](C)CC)[C@@H](C)CC)C(=O)N[C@@H](C)C(=O)N[C@@H](CCC(N)=O)C(=O)N[C@@H](CCC(N)=O)C(=O)N[C@@H](CCCCNC(=O)COCCOCCNC(=O)COCCOCCNC(=O)CC[C@H](NC(=O)CC[C@H](NC(=O)CCCCCCCCCCCCCCCCC(=O)O)C(=O)O)C(=O)O)C(=O)N[C@@H](Cc1ccccc1)C(=O)N[C@H](C(=O)N[C@@H](CC(N)=O)C(=O)N[C@@H](Cc1c[nH]c2ccccc12)C(=O)N[C@@H](CC(C)C)C(=O)N[C@@H](CC(C)C)C(=O)N[C@@H](C)C(=O)N[C@@H](CCC(N)=O)C(=O)N[C@@H](CO)C(=O)N1CCC[C@H]1C(=O)N[C@@H](CO)C(=O)N[C@@H](CO)C(=O)NCC(=O)N[C@@H](C)C(=O)N1CCC[C@H]1C(=O)N1CCC[C@H]1C(=O)N1CCC[C@H]1C(=O)N[C@@H](CO)C(=O)O)C(C)C` [Compound 177] (H-[NMeY][Aib]EGTFISDYSIALDRIAQQK([AEEA-AEEA-γGlu-γGlu-C18 diacid])FVNWLLAQSPSSGAPPPS-OH), the solubility is at least 30 mg/mL (pH 7.4, aqueous buffer, pH 7.4 Phosphate Buffer - Solubility, 200 mM Phosphate buffer pH 7.4) and at least 15 mg/mL (pH 7.4, solubility in phosphate buffer at pH 7.4, 200 mM phosphate buffer pH 7.4).
